# Test results from patent publication US9932340B2, “Substituted indoles” (AbbVie Inc., priority 2014, dated 2018).
# Molecular target: SUV420H1 enzyme (Homo sapiens, UniProt Q4FZB7)
# Assay: TR-FRET SAH SUV420H1 enzyme inhibition assay
# Format: biochemical
# Details: Histone Peptide H4(8-30)me1 and SAM, overnight at room temp, TR-FRET detection of SAH, read-out: TR-FRET SAH_SUV420H1 IC50
# How it was run: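 SUV420H1 (90 nM) preincubated 30 min with compound (3-fold dilutions, 50 to 0.00075 μM), then H4(8-30)me1 peptide 5 nM and SAM 4 nM added, overnight at room temp. SAH product detected by TR-FRET with Tb anti-SAH antibody and Oregon Green-SAH in RIPA buffer, 4 h; IC50 from Hill fit, asymptotes fixed 0-100%.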
# Sequence of SUV420H1 enzyme (Q4FZB7 whole entry): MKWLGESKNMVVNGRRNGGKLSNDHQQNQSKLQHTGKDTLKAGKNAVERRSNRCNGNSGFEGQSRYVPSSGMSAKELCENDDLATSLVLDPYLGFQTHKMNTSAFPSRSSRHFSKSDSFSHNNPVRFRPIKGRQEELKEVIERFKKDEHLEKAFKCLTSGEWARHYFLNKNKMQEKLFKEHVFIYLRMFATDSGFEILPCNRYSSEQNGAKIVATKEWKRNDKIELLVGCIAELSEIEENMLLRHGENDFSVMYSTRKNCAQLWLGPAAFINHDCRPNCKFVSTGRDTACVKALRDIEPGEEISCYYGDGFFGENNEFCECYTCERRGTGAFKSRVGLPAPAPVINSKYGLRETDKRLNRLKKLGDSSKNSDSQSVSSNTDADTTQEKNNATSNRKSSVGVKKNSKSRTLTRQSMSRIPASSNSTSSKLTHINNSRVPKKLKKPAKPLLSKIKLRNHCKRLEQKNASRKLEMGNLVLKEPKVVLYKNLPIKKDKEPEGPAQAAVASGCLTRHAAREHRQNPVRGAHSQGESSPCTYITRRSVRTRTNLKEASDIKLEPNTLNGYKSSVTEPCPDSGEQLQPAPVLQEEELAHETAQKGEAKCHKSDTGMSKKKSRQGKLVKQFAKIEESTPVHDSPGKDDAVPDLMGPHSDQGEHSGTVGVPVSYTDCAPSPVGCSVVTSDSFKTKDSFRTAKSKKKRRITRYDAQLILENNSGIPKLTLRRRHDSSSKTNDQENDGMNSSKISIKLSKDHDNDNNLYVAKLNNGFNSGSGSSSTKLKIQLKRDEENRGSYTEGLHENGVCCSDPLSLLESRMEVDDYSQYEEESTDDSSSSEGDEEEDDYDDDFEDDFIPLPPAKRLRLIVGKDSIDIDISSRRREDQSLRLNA
row,IC50 [µM],SMILES
1,4.15,"COc1cc(C(=O)NCc2cc3cc(Cl)cc(Cn4cnc5c(N)ncnc54)c3[nH]2)ccc1C [Example 300, N-({7-[(6-amino-9H-purin-9-yl)methyl]-5-chloro-1H-indol-2-yl}methyl)-3-methoxy-4-methylbenzamide]"
2,> 50,"CN(C)c1ccc(C(=O)NCc2cc3cc(Cl)cc(Cn4cnc5c(N)ncnc54)c3[nH]2)cc1 [Example 302, N-({7-[(6-amino-9H-purin-9-yl)methyl]-5-chloro-1H-indol-2-yl}methyl)-4-(dimethylamino)benzamide]"
3,0.0723,"Cc1cc(C#N)ccc1C(=O)NCc1cc2cc(Cl)cc(Cn3cnc4c(N)ncnc43)c2[nH]1 [Example 303, N-({7-[(6-amino-9H-purin-9-yl)methyl]-5-chloro-1H-indol-2-yl}methyl)-4-cyano-2-methylbenzamide]"
4,0.0491,"Cc1cc(C#N)ccc1C(=O)NCc1cc2cc(C3=CCOCC3)cc(Cn3cnc4c(N)ncnc43)c2[nH]1 [Example 304, N-({7-[(6-amino-9H-purin-9-yl)methyl]-5-(3,6-dihydro-2H-pyran-4-yl)-1H-indol-2-yl}methyl)-4-cyano-2-methylbenzamide]"
5,0.0367,"Cc1cc(C#N)ccc1C(=O)NCc1cc2cc(C3=CCNCC3)cc(Cn3cnc4c(N)ncnc43)c2[nH]1 [Example 305, N-({7-[(6-amino-9H-purin-9-yl)methyl]-5-(1,2,3,6-tetrahydropyridin-4-yl)-1H-indol-2-yl}methyl)-4-cyano-2-methylbenzamide]"
6,0.0564,"Cc1cc(C#N)ccc1C(=O)NCc1cc2cc(C3=CCC(F)(F)CC3)cc(Cn3cnc4c(N)ncnc43)c2[nH]1 [Example 306, N-({7-[(6-amino-9H-purin-9-yl)methyl]-5-(4,4-difluorocyclohex-1-en-1-yl)-1H-indol-2-yl}methyl)-4-cyano-2-methylbenzamide]"
7,0.0297,"CC(=O)N1CC=C(c2cc(Cn3cnc4c(N)ncnc43)c3[nH]c(CNC(=O)c4ccc(C#N)cc4C)cc3c2)CC1 [Example 307, N-({5-(1-acetyl-1,2,3,6-tetrahydropyridin-4-yl)-7-[(6-amino-9H-purin-9-yl)methyl]-1H-indol-2-yl}methyl)-4-cyano-2-methylbenzamide]"
8,0.05,Cc1cc(C#N)ccc1C(=O)NCc1cc2cc(C3=CCN(C(=O)OC(C)(C)C)CC3)cc(Cn3cnc4c(N)ncnc43)c2[nH]1 [Example 308]
9,7.31,"CN(C)c1cccc(C(=O)NCc2cc3cc(Cl)cc(Cn4cnc5c(N)ncnc54)c3[nH]2)c1 [Example 309, N-({7-[(6-amino-9H-purin-9-yl)methyl]-5-chloro-1H-indol-2-yl}methyl)-3-(dimethylamino)benzamide]"
10,13.2,"CCNc1ccccc1C(=O)NCc1cc2cc(Cl)cc(Cn3cnc4c(N)ncnc43)c2[nH]1 [Example 310, N-({7-[(6-amino-9H-purin-9-yl)methyl]-5-chloro-1H-indol-2-yl}methyl)-2-(ethylamino)benzamide]"
11,3.24,"COc1cc(C#N)ccc1CNCc1cc2cc(Cl)cc(Cn3cnc4c(N)ncnc43)c2[nH]1 [Example 311, 4-{[({7-[(6-amino-9H-purin-9-yl)methyl]-5-chloro-1H-indol-2-yl}methyl)amino]methyl}-3-methoxybenzonitrile]"
12,> 50,"COc1ccccc1CNC(=O)NCc1cc2cc(Cl)cc(Cn3cnc4c(N)ncnc43)c2[nH]1 [Example 312, 1-({7-[(6-amino-9H-purin-9-yl)methyl]-5-chloro-1H-indol-2-yl}methyl)-3-(2-methoxybenzyl)urea]"
13,> 50,"CC(=O)Nc1ccc(C(=O)NCc2cc3cc(Cl)cc(Cn4cnc5c(N)ncnc54)c3[nH]2)cc1 [Example 313, 4-(acetylamino)-N-({7-[(6-amino-9H-purin-9-yl)methyl]-5-chloro-1H-indol-2-yl}methyl)benzamide]"
14,1.93,"CC(C)c1ccccc1C(=O)NCc1cc2cc(Cl)cc(Cn3cnc4c(N)ncnc43)c2[nH]1 [Example 314, N-({7-[(6-amino-9H-purin-9-yl)methyl]-5-chloro-1H-indol-2-yl}methyl)-2-(propan-2-yl)benzamide]"
15,4.08,"COc1ccc(CCC(=O)NCc2cc3cc(Cl)cc(Cn4cnc5c(N)ncnc54)c3[nH]2)cc1 [Example 315, N-({7-[(6-amino-9H-purin-9-yl)methyl]-5-chloro-1H-indol-2-yl}methyl)-3-(4-methoxyphenyl)propanamide]"
16,13,"COc1cccc(CCC(=O)NCc2cc3cc(Cl)cc(Cn4cnc5c(N)ncnc54)c3[nH]2)c1 [Example 316, N-({7-[(6-amino-9H-purin-9-yl)methyl]-5-chloro-1H-indol-2-yl}methyl)-3-(3-methoxyphenyl)propanamide]"
17,4.5,"CN(C)c1ccc(CC(=O)NCc2cc3cc(Cl)cc(Cn4cnc5c(N)ncnc54)c3[nH]2)cc1 [Example 317, N-({7-[(6-amino-9H-purin-9-yl)methyl]-5-chloro-1H-indol-2-yl}methyl)-2-[4-(dimethylamino)phenyl]acetamide]"

row,IC50 [µM],SMILES
1,3.39,"Nc1ncnc2c1ncn2Cc1cc(Cl)cc2cc(CNC(=O)N3CCC(c4ccccc4F)C3)[nH]c12 (stereo not drawn) [Example 319, N-({7-[(6-amino-9H-purin-9-yl)methyl]-5-chloro-1H-indol-2-yl}methyl)-3-(2-fluorophenyl)pyrrolidine-1-carboxamide]"
2,8.03,"Nc1ncnc2c1ncn2Cc1cc(Cl)cc2cc(CNC(=O)c3ccccc3C(=O)N3CCCC3)[nH]c12 [Example 320, N-({7-[(6-amino-9H-purin-9-yl)methyl]-5-chloro-1H-indol-2-yl}methyl)-2-(pyrrolidin-1-ylcarbonyl)benzamide]"
3,8.22,"Nc1ncnc2c1ncn2Cc1cc(Cl)cc2cc(CNC(=O)c3ccccc3OC3CCOCC3)[nH]c12 [Example 321, N-({7-[(6-amino-9H-purin-9-yl)methyl]-5-chloro-1H-indol-2-yl}methyl)-2-(tetrahydro-2H-pyran-4-yloxy)benzamide]"
4,29.9,"Nc1ncnc2c1ncn2Cc1cc(Cl)cc2cc(CNC(=O)c3ccccc3N3CCCCC3)[nH]c12 [Example 322, N-({7-[(6-amino-9H-purin-9-yl)methyl]-5-chloro-1H-indol-2-yl}methyl)-2-(piperidin-1-yl)benzamide]"
5,0.345,"Nc1ncnc2c1ncn2Cc1cc(Cl)cc2cc(CNCc3cccc(CN4CCCCC4)c3)[nH]c12 [Example 323, 9-{[5-chloro-2-({[3-(piperidin-1-ylmethyl)benzyl]amino}methyl)-1H-indol-7-yl]methyl}-9H-purin-6-amine]"
6,12.5,"Nc1ncnc2c1ncn2Cc1cc(Cl)cc2cc(CNC(=O)c3ccccc3C(=O)N3CCCCC3)[nH]c12 [Example 324, N-({7-[(6-amino-9H-purin-9-yl)methyl]-5-chloro-1H-indol-2-yl}methyl)-2-(piperidin-1-ylcarbonyl)benzamide]"
7,3.12,"Nc1ncnc2c1ncn2Cc1cc(Cl)cc2cc(CNCc3cccc(OCCN4CCCCC4)c3)[nH]c12 [Example 325, 9-({5-chloro-2-[({3-[2-(piperidin-1-yl)ethoxy]benzyl}amino)methyl]-1H-indol-7-yl}methyl)-9H-purin-6-amine]"
8,6.2,"Cc1onc(-c2ccccc2)c1C(=O)NCc1cc2cc(Cl)cc(Cn3cnc4c(N)ncnc43)c2[nH]1 [Example 326, N-({7-[(6-amino-9H-purin-9-yl)methyl]-5-chloro-1H-indol-2-yl}methyl)-5-methyl-3-phenyl-1,2-oxazole-4-carboxamide]"
9,5.28,"Cn1ccnc1-c1ccccc1C(=O)NCc1cc2cc(Cl)cc(Cn3cnc4c(N)ncnc43)c2[nH]1 [Example 327, N-({7-[(6-amino-9H-purin-9-yl)methyl]-5-chloro-1H-indol-2-yl}methyl)-2-(1-methyl-1H-imidazol-2-yl)benzamide]"
10,0.41,"Nc1ncnc2c1ncn2Cc1cc(Cl)cc2cc(CNC(=O)c3ccc4snnc4c3)[nH]c12 [Example 329, N-({7-[(6-amino-9H-purin-9-yl)methyl]-5-chloro-1H-indol-2-yl}methyl)-1,2,3-benzothiadiazole-5-carboxamide]"
11,1.06,"Nc1ncnc2c1ncn2Cc1cc(Cl)cc2cc(CNC(=O)c3ccc4nc[nH]c4n3)[nH]c12 [Example 330, N-({7-[(6-amino-9H-purin-9-yl)methyl]-5-chloro-1H-indol-2-yl}methyl)-3H-imidazo[4,5-b]pyridine-5-carboxamide]"
12,2.58,"Nc1ncnc2c1ncn2Cc1cc(Cl)cc2cc(CNC(=O)c3ccc4[nH]nnc4c3)[nH]c12 [Example 331, N-({7-[(6-amino-9H-purin-9-yl)methyl]-5-chloro-1H-indol-2-yl}methyl)-1H-benzotriazole-6-carboxamide]"
13,2.02,"Nc1ncnc2c1ncn2Cc1cc(Cl)cc2cc(CNC(=O)c3ccc4[nH]nnc4c3)[nH]c12 [Example 332, N-({7-[(6-amino-9H-purin-9-yl)methyl]-5-chloro-1H-indol-2-yl}methyl)-1H-benzotriazole-5-carboxamide]"
14,1.7,"Nc1ncnc2c1ncn2Cc1cc(Cl)cc2cc(CNC(=O)c3cnc4[nH]cnc4c3)[nH]c12 [Example 333, N-({7-[(6-amino-9H-purin-9-yl)methyl]-5-chloro-1H-indol-2-yl}methyl)-3H-imidazo[4,5-b]pyridine-6-carboxamide]"
15,2.04,"Nc1ncnc2c1ncn2Cc1cc(Cl)cc2cc(CNC(=O)c3cc4[nH]nnc4cc3F)[nH]c12 [Example 334, N-({7-[(6-amino-9H-purin-9-yl)methyl]-5-chloro-1H-indol-2-yl}methyl)-5-fluoro-1H-benzotriazole-6-carboxamide]"
16,0.401,"Nc1ncnc2c1ncn2Cc1cc(Cl)cc2cc(CNC(=O)c3ccc4ncsc4c3)[nH]c12 [Example 335, N-({7-[(6-amino-9H-purin-9-yl)methyl]-5-chloro-1H-indol-2-yl}methyl)-1,3-benzothiazole-6-carboxamide]"
